Assays:
Type in all cases: cell-based
Prostate Cancer Growth = assay: SAR studies using inhibition of prostate cancer growth as a readout; settings: SAR by substituent position
[1] = tested on: PANC1 pancreatic cancer cells; assay: Growth inhibition of PANC1 pancreatic cancer cells
Method: Cell growth assay: Tumor cells were seeded into 48 well plates (1000 cells/well) and treated with varied agents. The Incucyte real-time imaging system (Incucyte) was used to measure cell proliferation using a non-label cell monolayer confluence approach. The images were captured every 12 h. Graphs were generated using an integrated confluence metric as an alternative for cell numbers. At the end of the study cell growth was visualized by crystal violet staining.
(§1) Because of ease of growth, PANC1 pancreatic cancer cells were used to test the activity of derivatives of VBT-5445 (FIG. 14). […] Using a doxycycline inducible Pim kinase vector in these tumor cells, this inhibition of phosphorylation was proportional to the level of Pim in these cells (FIG. 9). […] Inhibition of mTORC1 is known to stimulate the feedback activation of mTORC2 leading to AKT phosphorylation. […] The effect of these compounds on mTORC1 and 2 was still evident in PC3-LN4 cells that contained a knockout (KO) using CRISPR/CAS9 of either TSC2 or DEPDC5 (FIG. 12, lanes 4-9). TSC2 KO activated the Rheb GTPase while DEPDC5 KO activated the RAG GTPase both of which stimulate mTORC1 activity. Thus, GRG compounds were capable of inhibiting mTORC1 activity even when this kinase was highly activated.

mTORC = assay: Phosphorylation of mTORC substrates in PANC1 cells (Western blot); settings: overnight incubation, FIG. 19
Method: Immunoblotting: Western blots were performed as described previously. Briefly, protein lysates (30 μg) were subjected to SDS-PAGE and transferred to nitrocellulose membranes. After blocking with 5% milk in TBST buffer for 30 min at room temperature, the membranes were incubated overnight at 4° C. with the Indicated primary antibody in 3% BSA in TBST. Specific proteins were detected with the corresponding HRP conjugated secondary antibody using enhanced chemiluminescence (GE Lifesciences, Piscataway, NJ).
as §1

PANC1 cells = assay: Reverse-phase protein array (RPPA) of PANC1 cells, Table 3; settings: 6 h treatment, divided by zero-time value, average of triplicate
Method: To further examine how these compounds function to inhibit tumor growth, changes in both a wide variety of phosphoprotein and protein levels using reverse-phase protein arrays (RPPA) were evaluated. […] The values in the RPPA obtained at these two time points were divided by the value at time zero to allow an evaluation of the changes caused by each drug treatment.

SMILES: COc1ccc(CNCc2cc3ccc(Cl)cc3n(CCOc3ccccc3)c2=O)nc1 [GRG-1-27]
- Activity (inhibition of prostate cancer growth) (Prostate Cancer Growth): 2 active compounds

SMILES: O=c1c(CNCc2ccc(C(F)(F)F)cn2)cc2ccc(Cl)cc2n1CCOc1ccccc1 [GRG-1-28]
- Activity (inhibition of prostate cancer growth) (Prostate Cancer Growth): 2 active compounds

SMILES: Cc1cccc(CNCc2cc3ccc(Cl)cc3n(CCOc3ccccc3)c2=O)n1 [GRG-1-31]
- growth inhibitory activity against PANC1 pancreatic cancer cells [1]: most active
- block of phosphorylation of mTORC substrates (AKT, 4E-BP1, S6) (mTORC): block the phosphorylation of mTORC substrates

SMILES: O=c1c(COCc2ccccc2)cc2ccc(Cl)cc2n1CCOc1ccccc1 [GRG-1-60]
- growth inhibitory activity against PANC1 pancreatic cancer cells [1]: inactive
- block of phosphorylation of mTORC substrates (AKT, 4E-BP1, S6) (mTORC): not
- Activity (inhibition of prostate cancer growth) (Prostate Cancer Growth): Contributes to loss of activity

SMILES: CN(Cc1ccccn1)Cc1cc2ccc(Cl)cc2n(CCOc2ccccc2)c1=O [GRG-1-61]
- Activity (inhibition of prostate cancer growth) (Prostate Cancer Growth): Reduces activity to some extent

SMILES: O=c1c(COCc2ccccn2)cc2ccc(Cl)cc2n1CCOc1ccccc1 [GRG-1-63]
- Activity (inhibition of prostate cancer growth) (Prostate Cancer Growth): Contributes to loss of activity

SMILES: COc1ccc(OCCn2c(=O)c(CNCc3ccccn3)cc3ccc(Cl)cc32)cc1 [GRG-1-70]
- Activity (inhibition of prostate cancer growth) (Prostate Cancer Growth): Brings activity, though 4-chloro

SMILES: O=C(NCc1cc2ccc(Cl)cc2n(CCOc2ccccc2)c1=O)c1ccccn1 [GRG-1-94, N-((7-chloro-2-oxo-1-(2-phenoxyethyl)-1,2-dihydroquinolin-3-yl)methyl) picolinamide]
- growth inhibitory activity against PANC1 pancreatic cancer cells [1]: inactive
- block of phosphorylation of mTORC substrates (AKT, 4E-BP1, S6) (mTORC): not

SMILES: COc1ccnc(CNCc2cc3ccc(Cl)cc3n(CCOc3ccccc3)c2=O)c1 [GRG-1-95]
- Activity (inhibition of prostate cancer growth) (Prostate Cancer Growth): 6 active compounds

SMILES: Cc1ccnc(CNCc2cc3ccc(Cl)cc3n(CCOc3ccccc3)c2=O)c1 [GRG-1-96]
- Activity (inhibition of prostate cancer growth) (Prostate Cancer Growth): 6 active compounds

SMILES: O=c1c(CNCc2ccccn2)cc2ccc(Cl)cc2n1CCSc1ccccc1 [GRG-1-104, 7-chloro-1-(2-(phenylthio)ethyl)-3-(((pyridin-2-ylmethyl)amino)methyl)quinolin-2 (1H)-one]
- growth inhibitory activity against PANC1 pancreatic cancer cells [1]: most active
- block of phosphorylation of mTORC substrates (AKT, 4E-BP1, S6) (mTORC): block the phosphorylation of mTORC substrates
- Activity (inhibition of prostate cancer growth) (Prostate Cancer Growth): Active

SMILES: COc1ccc(OCCn2c(=O)c(CNCc3cc(C(F)(F)F)ccn3)cc3ccc(Cl)cc32)cc1 [GRG-1-127]
- Activity (inhibition of prostate cancer growth) (Prostate Cancer Growth): Brings activity, though 4-chloro

SMILES: COc1ccc(OCCn2c(=O)c(CNCc3cc(Br)ccn3)cc3ccc(Cl)cc32)cc1 [GRG-1-166]
- Activity (inhibition of prostate cancer growth) (Prostate Cancer Growth): Brings activity, though 4-chloro

SMILES: COc1ccc(OCCn2c(=O)c(CNCc3cc(Cl)ccn3)cc3ccc(Cl)cc32)cc1 [GRG-1-167]
- Activity (inhibition of prostate cancer growth) (Prostate Cancer Growth): substitution decreases activity

SMILES: O=c1c(CNCc2cc(Br)ccn2)cc2ccc(N3CCOCC3)cc2n1CCOc1ccccc1 [GRG-02-24]
- Activity (inhibition of prostate cancer growth) (Prostate Cancer Growth): Contributes to loss of activity

SMILES: O=c1c(CNCc2cccc(Br)n2)cc2ccc(Cl)cc2n1CCOc1ccccc1 [ZH-2-44]
- Activity (inhibition of prostate cancer growth) (Prostate Cancer Growth): 1 active compound (methoxy)

SMILES: O=c1c(CNCc2ncccc2F)cc2ccc(Cl)cc2n1CCOc1ccccc1 [ZH-2-50]
- Activity (inhibition of prostate cancer growth) (Prostate Cancer Growth): Less active

SMILES: CC(C)n1nc(-c2cc3cc(O)ccc3[nH]2)c2c(N)ncnc21 [pp242, reference compound]
- 4EBP1S65, RPPA value after treatment / zero-time value (PANC1 cells): 0.22
- 4EBP1T70, RPPA value after treatment / zero-time value (PANC1 cells): 0.32
- ATMS1981, RPPA value after treatment / zero-time value (PANC1 cells): 0.46
- CICaspase3D175, RPPA value after treatment / zero-time value (PANC1 cells): 0.7
- CofilinS3, RPPA value after treatment / zero-time value (PANC1 cells): 0.6
- CrkIIY221, RPPA value after treatment / zero-time value (PANC1 cells): 1.57
- ERKT202_Y204, RPPA value after treatment / zero-time value (PANC1 cells): 2.04
- FAKY576_577, RPPA value after treatment / zero-time value (PANC1 cells): 0.81
- FKHR-FOX01S256, RPPA value after treatment / zero-time value (PANC1 cells): 1.03
- GSK3a_bS21_9, RPPA value after treatment / zero-time value (PANC1 cells): 1.09
- HistoneH2AXS139, RPPA value after treatment / zero-time value (PANC1 cells): 1.19
- HistoneH3S10, RPPA value after treatment / zero-time value (PANC1 cells): 0.64
- IL-1bcleavedD116, RPPA value after treatment / zero-time value (PANC1 cells): 0.46
- Jak1Y1022_1023, RPPA value after treatment / zero-time value (PANC1 cells): 0.71
- MAPKpTEpY, RPPA value after treatment / zero-time value (PANC1 cells): 0.64
- PDGFRbY751, RPPA value after treatment / zero-time value (PANC1 cells): 0.67
- PP1aT320, RPPA value after treatment / zero-time value (PANC1 cells): 0.61
- PaxillinY118, RPPA value after treatment / zero-time value (PANC1 cells): 0.9
- RetY905, RPPA value after treatment / zero-time value (PANC1 cells): 0.25
- S6RibosomalPS235_236, RPPA value after treatment / zero-time value (PANC1 cells): 0.34
- S6RibosomalProtein S240_244, RPPA value after treatment / zero-time value (PANC1 cells): 0.66
- SAPK_JNKT183_Y185, RPPA value after treatment / zero-time value (PANC1 cells): 1.07
- Stat2Y690, RPPA value after treatment / zero-time value (PANC1 cells): 0.76
- Stat3Y705, RPPA value after treatment / zero-time value (PANC1 cells): 0.51
- Tyk2Y1054_1055, RPPA value after treatment / zero-time value (PANC1 cells): 0.51
- VEGFR2Y1175, RPPA value after treatment / zero-time value (PANC1 cells): 0.34
- YAPS127, RPPA value after treatment / zero-time value (PANC1 cells): 0.76
- cAbIY245, RPPA value after treatment / zero-time value (PANC1 cells): 1.54
- cKitY703, RPPA value after treatment / zero-time value (PANC1 cells): 1.09
- p38MAPKT180_Y182, RPPA value after treatment / zero-time value (PANC1 cells): 0.59
- p70S6KS371, RPPA value after treatment / zero-time value (PANC1 cells): 0.39
- p70S6KT389, RPPA value after treatment / zero-time value (PANC1 cells): 0.29
- p90RSKS380, RPPA value after treatment / zero-time value (PANC1 cells): 0.91

Source: patent publication US20250129045A1, “SMALL MOLECULE PIM AND MTOR KINASE INHIBITOR AND METHODS OF USE THEREOF” (Arizona Board of Regents on Behalf of the University of …, priority 2022, published 2025)
